Experimental data: patent publication EP2767543B1, “SALTS OF CARBAMOYL PHOSPHONIC ACID ESTERS WHICH ACT AS SELECTIVE INHIBITORS OF HUMAN IMMUNODEFICIENCY VIRUS HIV-1 PRODUCTION” (Aktsionernoe Obshcestvo "Proizvodstvenno-Kommercheskaya …, priority 2011, dated 2013)

Tests used:
HIV-1, GVK4046 = assay: HIV-1 reproduction inhibition in MT-4 cell culture (p24 ELISA and MTT cell vitality, day 4); assay type: cell-based; conditions: HIV-1, GVK4046 in MT-4 cell culture, 4 days; read-out: ID50 (the source's name)
Method: The HIV inhibition study includes cultivation of primary infective MT-4 line lymphoid cells over the studied compounds, the ultimate concentrations of which in the culture medium range from 0.001 µg/ml to 100 µg/ml, during one passage, within 4 days.
HIV reproduction inhibition in the sensitive cell culture is determined by the reduction in p24 virus-specific protein accumulation (according to the enzyme-linked immunosorbent assay) and by the increase in cell vitality over the drug as compared with the reference cells, on Day 4 of the cultivation, using 3-(4.5-dimethylthiazole-2-yl-)-2,5-diphenyl tetrazolium (MTT) bromide staining.
The impact of the studied compounds on HIV-1 reproduction in MT-4 cell culture is studied using a well-known technique.

MT-4 cells = assay: Cytotoxicity assessment in MT-4 cells (MTT / formazan method, 4 days); assay type: cell-based; conditions: concentration that reduces MT-4 cell vitality by 50%, day 4, MTT
Method: Cytotoxicity of a drug is estimated by adding its delution in RPMI-1640 serum-free medium to MT-4 cell suspension placed in cavities of the 96-cavity board (Cel-Cult, England), up to the ultimate concentrations of 0.001-100 µg/ml (three cavities per dose), with subsequent cultivation at 37°C within 4 days. The inoculation concentration is 0.5x10^6 cell particles in 1 mm. The cells, to which the drug was not added and was substituted with the same quantity of the serum-free medium, serve as the reference. The cell vitality is counted on Day 4 of cultivation, using the formazan method (intravital staining of MTT cells). Toxicity of different drug doses is determined by the cell vitality as compared with the reference cells; the dose-dependent curve is built using obtained data, and the concentration that reduces cell vitality by 50% (CD50) is determined. […] It is also noteworthy that 50% toxic doses exceed HIV-1 effective doses by a factor of 2-4 (see Table 1) .

[1] = Stability analysis of 1% water solutions at room temperature; assay type: physicochemical; conditions: within a month
Method: The stability analysis for the obtained compounds in the form of 1% water solutions at room temperature was carried out. The acid form of the carbamoyl phosphonate and ammonia salt degrade by 40% and 2%, respectively, within a month; no destruction products were detected for the rest of salts within a month.

Cc1cn([C@H]2C[C@H](N=[N+]=[N-])[C@@H](COP(=O)(O)C(N)=O)O2)c(=O)[nH]c1=O [Acid form (reference), [(2S,3S,5R)-3-azido-5-(5-methyl-2,4-deoxythymidine-1-yl)oxolan-2-yl]methyl ester of carbamoyl phosphonic acid, reference compound]
IC50 (HIV-1, GVK4046): 800 nM | CD50 (MT-4 cells): 2.6 µM | degrade [1]: 40%
